Results from US12629355B2, “Drug inhibitor against migration and invasion of cancer cells and methods of treating against metastasis of cancer cells” (HOWARD UNIVERSITY, priority 2019, dated 2026).

Target: T1, RACK1A Y248 phosphorylation (Arabidopsis thaliana, UniProt O24456)
T1 construct: from tissue; host or cells: one-week old Arabidopsis seedlings (whole-seedling lysate)
Experiment: Stress hormone (ABA) induced RACK1A Y248 phosphorylation in Arabidopsis seedlings, western blot (FIG. 1)
Assay type: cell-based
Conditions: 10 uM ABA, 12 hours
Source text: The results of lab experiment establish the compounds identified by in silico screen to prevent RACK1 Y248 phosphorylation can inhibit RACK1 Y248 phosphorylation and confirm their utility in their application in RACK1 mediated cellular pathways. Y248 phosphorylation has previously been identified as a key event needed for RACK1 mediated scaffolding activities by regulating protein-protein interactions in plants. The corresponding residue in human RAKI is also a key requirement for scaffolding activities needed at the receptor level during the invasion and migration of cancer cells. […] The knock-out plant did maintain both the RACK1B protein and the RACK1C protein, but the antibody was raised to detect the RACK1A Y248 phosphorylation only.
As to FIG. 1, since RACK1 is a regulator of plant stress hormone Abscisic acid (ABA) (Guo et al., 2009), one-week old Arabidopsis seedlings were treated with 10 uM of ABA in the presence/absence of the inhibitor compounds for 12 hours in a growth chamber (overnight) at 22 C mostly in the night dark. Lysates isolated in buffer (Cell Signaling, MA) supplemented with plant protease inhibitor (Sigma-Aldrich), Protein Tyrosine phosphatase inhibitors (Santa Cruz Biotechnology, TX), and N-Ethylamaleimide (Sigma-Aldrich) at 25 mM to inhibit de-sumoylation. […]

T1 sequence (O24456 whole entry): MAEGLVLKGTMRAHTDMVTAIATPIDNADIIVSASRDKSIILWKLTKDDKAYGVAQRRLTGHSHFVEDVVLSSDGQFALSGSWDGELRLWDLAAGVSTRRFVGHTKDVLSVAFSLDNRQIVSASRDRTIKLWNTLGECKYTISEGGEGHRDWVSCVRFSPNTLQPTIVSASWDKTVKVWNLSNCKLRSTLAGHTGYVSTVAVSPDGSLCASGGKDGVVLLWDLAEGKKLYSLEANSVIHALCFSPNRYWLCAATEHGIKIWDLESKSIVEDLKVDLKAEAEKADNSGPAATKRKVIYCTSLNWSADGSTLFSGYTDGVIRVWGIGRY

## Nn1c(S)nnc1-c1ccc(F)cc1 [SD 29, reference compound]
  RACK1A Y248 phosphorylation with stress hormone present: prevents Y248 phosphorylation
